Legend:
Type in all cases: cell-based
[1] = test system: MDA-MB-231 (breast cancer); assay: Antiproliferative activity (CCK-8 cell viability), MDA-MB-231; conditions: Homo sapiens, 72 h; for inhibition at 3.3 µM: Compound concentration: 3.3 μM; for inhibition at 3.3 µM / inhibition at 10 µM: read-out: Antiproliferative activity in cancerous cells, MDA-MB-231 (inhibition of cell growth); for inhibition at 10 µM: Compound concentration: 10 μM
Method in brief: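 In this CCK-8 viability assay, MDA-MB-231 cells maintained in Dulbecco's modified Eagle's medium containing 10% fetal bovine serum were placed in 96-well plates (2,000-5,000 cells/well) and treated with compound for 72 h at 37° C. A 4 h incubation with 10 μL CCK-8 followed, plates were read at 450 nm, and viability was expressed against DMSO vehicle wells across replicates.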

[2] = test system: B16F10 (malignant melanoma); assay: Antiproliferative activity (CCK-8 cell viability), B16F10; conditions: Mus musculus, 72 h, read-out: Antiproliferative activity in cancerous cells, B16F10 (inhibition of cell growth); for inhibition at 3.3 µM: B16-F10, Compound concentration: 3.3 μM; for inhibition at 10 µM: B16-F10, Compound concentration: 10 μM
Method in brief: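 Attached B16F10 cells in 96-well plates were incubated with compound at 37° C for 72 h, followed by 10 μL CCK-8 reagent per well and a further 4 h incubation. A multi-well plate reader measured absorbance at 450 nm. Percent viability across replicates was calculated against DMSO vehicle-treated cells.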

[3] = test system: HepG2 (liver cancer); assay: Antiproliferative activity (CCK-8 cell viability), HepG2; conditions: Homo sapiens, 72 h, read-out: Antiproliferative activity in cancerous cells, HepG2 (inhibition of cell growth); for inhibition at 3.3 µM: Compound concentration: 3.3 μM; for inhibition at 10 µM: Compound concentration: 10 μM
Method in brief: (§1)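 Cells were seeded at 2,000-5,000/well (HeLa in MEM, HepG2 and SW480 in DMEM, A549 in F-12K, all with 10% FBS) and treated with compound at 3.3, 10 or 30 μM for 72 h at 37° C. CCK-8 was added for 4 h, absorbance was read at 450 nm, and viability was expressed relative to DMSO-treated wells.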

[4] = test system: A549 (lung adenocarcinoma); assay: Antiproliferative activity (CCK-8 cell viability), A549; conditions: Homo sapiens, 72 h, read-out: Antiproliferative activity in cancerous cells, A549 (inhibition of cell growth); for inhibition at 3.3 µM: Compound concentration: 3.3 μM; for inhibition at 10 µM: Compound concentration: 10 μM
Method in brief: as §1

[5] = test system: SW480 (colon cancer); assay: Antiproliferative activity (CCK-8 cell viability), SW480; conditions: Homo sapiens, 72 h; for inhibition at 3.3 µM: Compound concentration: 3.3 μM; for inhibition at 3.3 µM / inhibition at 10 µM: read-out: Antiproliferative activity in cancerous cells, SW480 (inhibition of cell growth); for inhibition at 10 µM: Compound concentration: 10 μM; for inhibition at 30 µM: Compound concentration: 30 μM, read-out: Antiproliferative activity in cancerous cells, SW480
Method in brief: as §1

[6] = test system: HeLa (cervical cancer); assay: Antiproliferative activity (CCK-8 cell viability), HeLa; conditions: Homo sapiens, 72 h, read-out: Antiproliferative activity in cancerous cells, HELA (inhibition of cell growth); for inhibition at 3.3 µM: Compound concentration: 3.3 μM; for inhibition at 10 µM: Compound concentration: 10 μM
Method in brief: as §1

[7] = test system: A431 (epidermoid carcinoma); assay: Antiproliferative activity (CCK-8 cell viability), A431; conditions: Homo sapiens, 72 h, read-out: Antiproliferative activity in cancerous cells, A431 (inhibition of cell growth); for inhibition at 3.3 µM: A-431, Compound concentration: 3.3 μM; for inhibition at 10 µM: A-431, Compound concentration: 10 μM
Method in brief: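 Cell viability of compound-treated A431 cells was measured with a Cell Counting Kit-8. Each well received 10 μL of CCK-8 after 72 h of compound exposure, followed by 4 h incubation at 37° C. and a 450 nm plate-reader measurement. Percent viability was calculated relative to DMSO controls across replicates.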

O=C(O)CC1=C(Cc2ccc(Oc3ccc(F)cc3)cc2)/C(=C/c2ccc(Cc3ccc(F)cc3)cc2)c2ccc(F)cc21 [A112, (Z)-2-(5-Fluoro-1-(4-(4-fluorobenzyl)benzylidene)-2-(4-(4-fluorophenoxy)-benzyl)-1H-inden-3-yl)acetic acid]
30 to 50%: inhibition at 3.3 µM [2] | inhibition at 3.3 µM [3]
≥ 50%: inhibition at 3.3 µM [1] | inhibition at 10 µM [1] | inhibition at 10 µM [2] | inhibition at 10 µM [3] | inhibition at 3.3 µM [4] | inhibition at 10 µM [4] | inhibition at 3.3 µM [5] | inhibition at 10 µM [5] | inhibition at 3.3 µM [6] | inhibition at 10 µM [6] | inhibition at 3.3 µM [7] | inhibition at 10 µM [7]

CC1=C(CC(=O)O)c2cc(F)ccc2/C1=C\c1ccc(OCc2cc3ccccc3s2)cc1 [B70, (Z)-2-(1-(4-(Benzo[b]thiophen-2-ylmethoxy)benzylidene)-5-fluoro-2-methyl-1H-inden-3-yl)acetic acid]
≥ 50%: inhibition at 10 µM [1] | inhibition at 3.3 µM [2] | inhibition at 10 µM [2] | inhibition at 3.3 µM [3] | inhibition at 10 µM [3] | inhibition at 3.3 µM [4] | inhibition at 10 µM [4] | inhibition at 10 µM [5] | inhibition at 3.3 µM [6] | inhibition at 10 µM [6]
30 to 50%: inhibition at 3.3 µM [1] | inhibition at 3.3 µM [5] | inhibition at 3.3 µM [7] | inhibition at 10 µM [7]

CCc1ccc2c(c1)C(CC(=O)O)=C(C)/C2=C/c1ccc(COc2ccc(F)c(F)c2)cc1 [B55, (Z)-2-(1-(4-((3,4-Difluorophenoxy)methyl)benzylidene)-5-ethyl-2-methyl-1H-inden-3-yl)acetic acid]
30 to 50%: inhibition at 3.3 µM [4] | inhibition at 3.3 µM [7]
≥ 50%: inhibition at 3.3 µM [1] | inhibition at 10 µM [1] | inhibition at 3.3 µM [2] | inhibition at 10 µM [2] | inhibition at 10 µM [3] | inhibition at 10 µM [4] | inhibition at 10 µM [5] | inhibition at 10 µM [6] | inhibition at 10 µM [7]
< 30%: inhibition at 3.3 µM [3] | inhibition at 3.3 µM [5] | inhibition at 3.3 µM [6]

CC1=C(CC(=O)O)c2cc(Cl)ccc2/C1=C\c1cccc(Oc2ccc(Cl)cc2)c1 [C93, (Z)-2-(5-Chloro-1-(3-(4-chlorophenoxy)benzylidene)-2-methyl-1H-inden-3-yl)acetic acid]
< 30%: inhibition at 3.3 µM [1] | inhibition at 30 µM ([1]; Compound concentration: 30 μM, read-out: Antiproliferative activity in cancerous cells, MDA-MB-231) | inhibition at 3.3 µM [4] | inhibition at 3.3 µM [5] | inhibition at 3.3 µM [6]
≥ 50%: inhibition at 10 µM [1] | inhibition at 3.3 µM [2] | inhibition at 10 µM [2] | inhibition at 3.3 µM [3] | inhibition at 10 µM [3] | inhibition at 10 µM [4] | inhibition at 10 µM [6] | inhibition at 3.3 µM [7] | inhibition at 10 µM [7]
30 to 50%: inhibition at 10 µM [5]

CCc1ccc2c(c1)C(CC(=O)O)=C(C)/C2=C/c1cccc(Oc2ccc(C(F)(F)F)cc2)c1 [C106, (Z)-2-(5-Ethyl-2-methyl-1-(3-(4-(trifluoromethyl)phenoxy)benzylidene)-1H-inden-3-yl)acetic acid]
30 to 50%: inhibition at 3.3 µM [7]
≥ 50%: inhibition at 3.3 µM [1] | inhibition at 10 µM [1] | inhibition at 3.3 µM [2] | inhibition at 10 µM [2] | inhibition at 3.3 µM [3] | inhibition at 10 µM [3] | inhibition at 3.3 µM [4] | inhibition at 10 µM [4] | inhibition at 3.3 µM [5] | inhibition at 10 µM [5] | inhibition at 3.3 µM [6] | inhibition at 10 µM [6] | inhibition at 10 µM [7]

CC1=C(CC(=O)O)c2cc(F)ccc2/C1=C\c1ccc(COCc2ccc(Cl)cc2)cc1 [B103, (Z)-2-(1-(4-(((4-Chlorobenzyl)oxy)methyl)benzylidene)-5-fluoro-2-methyl-1H-inden-3-yl)acetic acid]
≥ 50%: inhibition at 10 µM [1] | inhibition at 10 µM [2] | inhibition at 10 µM [3] | inhibition at 10 µM [4] | inhibition at 10 µM [5] | inhibition at 10 µM [6] | inhibition at 3.3 µM [7] | inhibition at 10 µM [7]
30 to 50%: inhibition at 3.3 µM [1] | inhibition at 3.3 µM [3]
< 30%: inhibition at 3.3 µM [2] | inhibition at 3.3 µM [4] | inhibition at 3.3 µM [5] | inhibition at 3.3 µM [6]

COc1cc(Oc2ccc(Cl)cc2)ccc1/C=C1/C(C)=C(CC(=O)O)c2cc(F)ccc21 [C58, (Z)-2-(1-(4-(4-Chlorophenoxy)-2-methoxybenzylidene)-5-fluoro-2-methyl-1H-inden-3-yl)acetic acid]
< 30%: inhibition at 3.3 µM [1] | inhibition at 10 µM [1] | inhibition at 3.3 µM [5] | inhibition at 10 µM [5]
30 to 50%: inhibition at 30 µM [5]
≥ 50%: inhibition at 3.3 µM [2] | inhibition at 10 µM [2] | inhibition at 3.3 µM [3] | inhibition at 10 µM [3] | inhibition at 3.3 µM [4] | inhibition at 10 µM [4] | inhibition at 3.3 µM [6] | inhibition at 10 µM [6] | inhibition at 3.3 µM [7] | inhibition at 10 µM [7]

COc1ccc2c(c1)C(CC(=O)O)=C(C)/C2=C/c1ccc(Oc2cccc(Cl)c2)cc1 [C73, (Z)-2-(1-(4-(3-Chlorophenoxy)benzylidene)-5-methoxy-2-methyl-1H-inden-3-yl)acetic acid]
≥ 50%: inhibition at 10 µM [2] | inhibition at 10 µM [6] | inhibition at 10 µM [7]
30 to 50%: inhibition at 10 µM [1] | inhibition at 3.3 µM [2] | inhibition at 30 µM [5] | inhibition at 3.3 µM [6] | inhibition at 3.3 µM [7]
< 30%: inhibition at 3.3 µM [1] | inhibition at 3.3 µM [3] | inhibition at 10 µM [3] | inhibition at 3.3 µM [4] | inhibition at 10 µM [4] | inhibition at 3.3 µM [5] | inhibition at 10 µM [5]

CC1=C(CC(=O)O)c2cc(F)ccc2/C1=C\c1ccc(Oc2ccc(Cl)cc2)cc1O [C80, (Z)-2-(1-(4-(4-Chlorophenoxy)-2-hydroxybenzylidene)-5-fluoro-2-methyl-1H-inden-3-yl)acetic acid]
< 30%: inhibition at 3.3 µM [3] | inhibition at 3.3 µM [5] | inhibition at 3.3 µM [6]
30 to 50%: inhibition at 3.3 µM [2] | inhibition at 3.3 µM [4] | inhibition at 3.3 µM [7]
≥ 50%: inhibition at 3.3 µM [1] | inhibition at 10 µM [1] | inhibition at 10 µM [2] | inhibition at 10 µM [3] | inhibition at 10 µM [4] | inhibition at 10 µM [5] | inhibition at 10 µM [6] | inhibition at 10 µM [7]

CC1=C(CC(=O)O)c2cc(I)ccc2/C1=C\c1ccc(Oc2ccc(F)cc2)cc1 [C28, (Z)-2-(1-(4-(4-Fluorophenoxy)benzylidene)-5-iodo-2-methyl-1H-inden-3-yl)-acetic acid]
≥ 50%: inhibition at 10 µM [1] | inhibition at 10 µM [2] | inhibition at 10 µM [3] | inhibition at 10 µM [4] | inhibition at 10 µM [5] | inhibition at 10 µM [6] | inhibition at 10 µM [7]
< 30%: inhibition at 3.3 µM [1] | inhibition at 3.3 µM [5] | inhibition at 3.3 µM [7]
30 to 50%: inhibition at 3.3 µM [2] | inhibition at 3.3 µM [3] | inhibition at 3.3 µM [4] | inhibition at 3.3 µM [6]

— patent US20260184663A1, “INDENE COMPOUNDS, PHARMACEUTICAL COMPOSITIONS THEREOF, AND THEIR THERAPEUTIC APPLICATIONS” (NucMito Pharmaceuticals co. Ltd., priority 2022, published 2026)
